In PubChem BioAssay AID330 (DTP/NCI, 2004):
Values joined by “and” are separate entries in the source; they are usually repeats but may differ in a detail not shown here. Equal values may be shown once. Toxic doses and inconclusive results are not listed. The calls were made as follows: active = survival T/C of 150% or more; inactive = T/C below 125% in these data.

System: P388 leukemia ip, CD2F1 mice, survival T/C
Assay: NCI In Vivo Anticancer Drug Screen. Data for tumor model P388 Leukemia (intraperitoneal) in CD2F1 (CDF1) mice
Details: endpoint: median survival time, higher = longer survival
Method in brief: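 Mice carrying the transplanted tumor received test compound or vehicle. Survival was recorded in each group, and the value is the treated-group measurement divided by that of the vehicle-treated control group.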

[1] = dose: 50.0 mg/kg/injection, schedule: Q01DX005 (ip), vehicle: saline with Tween-80
[2] = dose: 100.0 mg/kg/injection, schedule: Q01DX005 (ip), vehicle: saline with Tween-80
[3] = dose: 200.0 mg/kg/injection, schedule: Q01DX005 (ip), vehicle: saline with Tween-80
[4] = dose: 100.0 mg/kg/injection, schedule: Q04DX003 (ip), vehicle: saline with Tween-80
[5] = dose: 200.0 mg/kg/injection, schedule: Q04DX003 (ip), vehicle: saline with Tween-80
[6] = dose: 50.0 mg/kg/injection, schedule: Q01DX009 (ip), vehicle: saline with Tween-80
[7] = dose: 100.0 mg/kg/injection, schedule: Q01DX009 (ip), vehicle: saline with Tween-80
[8] = dose: 200.0 mg/kg/injection, schedule: Q01DX009 (ip), vehicle: saline with Tween-80
[9] = dose: 50.0 mg/kg/injection, schedule: Q01DX005 (ip), vehicle: Klucel (hydroxypropylcellulose) (HPC)
[10] = dose: 100.0 mg/kg/injection, schedule: Q01DX005 (ip), vehicle: Klucel (hydroxypropylcellulose) (HPC)
[11] = dose: 200.0 mg/kg/injection, schedule: Q01DX005 (ip), vehicle: Klucel (hydroxypropylcellulose) (HPC)
[12] = dose: 12.5 mg/kg/injection, schedule: Q04DX003 (ip), vehicle: saline with Tween-80
[13] = dose: 25.0 mg/kg/injection, schedule: Q04DX003 (ip), vehicle: saline with Tween-80
[14] = dose: 50.0 mg/kg/injection, schedule: Q04DX003 (ip), vehicle: saline with Tween-80

Measured: T/C

Nc1nc(N)nc(NCCSSCCNc2nc(N)nc(N)n2)n1
inactive: dose: 12.5 mg/kg/injection, schedule: Q01DX009 (ip), vehicle: other 97 % of control | dose: 25.0 mg/kg/injection, schedule: Q01DX009 (ip), vehicle: other 102 % of control | dose: 50.0 mg/kg/injection, schedule: Q01DX009 (ip), vehicle: other 104 % of control and 86 % of control

C[PH+](C)C.C[PH+](C)C.[Au]
inactive: dose: 1.25 mg/kg/injection, schedule: Q01DX009 (ip), vehicle: saline 112 % of control | dose: 2.5 mg/kg/injection, schedule: Q01DX009 (ip), vehicle: saline 114 % of control | dose: 5.0 mg/kg/injection, schedule: Q01DX009 (ip), vehicle: saline 116 % of control

COc1cc2c(cc1OC)C1CC3(CCN1CC2)CC(=O)NC3=O (configuration not stated)
inactive: dose: 50.0 mg/kg/injection, schedule: Q01DX005 (ip), vehicle: saline 97 % of control | dose: 100.0 mg/kg/injection, schedule: Q01DX005 (ip), vehicle: saline 99 % of control | dose: 200.0 mg/kg/injection, schedule: Q01DX005 (ip), vehicle: saline 90 % of control

COCC1OCCCO1
inactive: dose: 60.0 mg/kg/injection, schedule: Q01DX005 (ip), vehicle: saline 102 % of control | dose: 120.0 mg/kg/injection, schedule: Q01DX005 (ip), vehicle: saline 98 % of control | dose: 240.0 mg/kg/injection, schedule: Q01DX005 (ip), vehicle: saline 97 % of control

ClCCN(CCCl)c1ccc(N=Nc2ccc(-c3ccccc3)cc2)cc1
inactive: dose: 3.0 mg/kg/injection, schedule: Q01DX001 (ip), vehicle: Klucel (hydroxypropylcellulose) (HPC) 95 % of control | dose: 6.0 mg/kg/injection, schedule: Q01DX001 (ip), vehicle: Klucel (hydroxypropylcellulose) (HPC) 103 % of control | dose: 12.0 mg/kg/injection, schedule: Q01DX001 (ip), vehicle: Klucel (hydroxypropylcellulose) (HPC) 93 % of control

CC(=O)c1nc(-c2ccccc2)oc1-c1ccccc1
inactive: dose: 100.0 mg/kg/injection, schedule: Q04DX002 (ip), vehicle: saline 96 % of control | dose: 200.0 mg/kg/injection, schedule: Q04DX002 (ip), vehicle: saline 95 % of control | dose: 400.0 mg/kg/injection, schedule: Q04DX002 (ip), vehicle: saline 99 % of control

Clc1cnc(Oc2ccccc2)c2ccccc12
inactive: [1] 104 % of control | [2] 103 % of control | [3] 88 % of control

Cc1ccc(NC(=O)COc2ccc(Cl)cc2Cl)c(C)c1
inactive: [4] 104 % of control | [5] 95 % of control | dose: 400.0 mg/kg/injection, schedule: Q04DX003 (ip), vehicle: saline with Tween-80 90 % of control

Cn1c(=O)c2c(ncn2N)n(C)c1=O
inactive: dose: 60.0 mg/kg/injection, schedule: Q01DX005 (ip), vehicle: Klucel (hydroxypropylcellulose) (HPC) 111 % of control | dose: 120.0 mg/kg/injection, schedule: Q01DX005 (ip), vehicle: Klucel (hydroxypropylcellulose) (HPC) 102 % of control | dose: 240.0 mg/kg/injection, schedule: Q01DX005 (ip), vehicle: Klucel (hydroxypropylcellulose) (HPC) 107 % of control

CCN(c1ccccc1)c1nsc(Cl)n1
inactive: [6] 101 % of control | [7] 104 % of control | [8] 104 % of control

COc1cc2c(cc1OC)C(=O)OC(=O)C2
inactive: [9] 100 % of control | [10] 92 % of control | [11] 95 % of control

CC(=O)SCC1C(=O)CCCC1=O
inactive: [12] 104 % of control | [13] 101 % of control and 109 % of control | [14] 100 % of control and 124 % of control

COC(=O)C12Oc3ccc(-c4ccc5c(c4O)C(O)=C4C(=O)CC(C)C(O)C4(C(=O)OC)O5)c(O)c3C(O)=C1C(=O)CC(C)C2O (configuration not stated)
inactive: dose: 0.39 mg/kg/injection, schedule: Q01DX009 (ip), vehicle: saline with Tween-80 100 % of control | dose: 0.78 mg/kg/injection, schedule: Q01DX009 (ip), vehicle: saline with Tween-80 104 % of control | dose: 1.56 mg/kg/injection, schedule: Q01DX009 (ip), vehicle: saline with Tween-80 106 % of control | dose: 2.5 mg/kg/injection, schedule: Q01DX009 (ip), vehicle: saline with Tween-80 96 % of control | dose: 3.13 mg/kg/injection, schedule: Q01DX009 (ip), vehicle: saline with Tween-80 112 % of control | dose: 5.0 mg/kg/injection, schedule: Q01DX009 (ip), vehicle: saline with Tween-80 100 % of control | dose: 6.25 mg/kg/injection, schedule: Q04DX003 (ip), vehicle: saline with Tween-80 104 % of control | dose: 8.33 mg/kg/injection, schedule: Q04DX003 (ip), vehicle: saline with Tween-80 104 % of control | dose: 10.0 mg/kg/injection, schedule: Q01DX009 (ip), vehicle: saline with Tween-80 105 % of control | [12] 109 % of control | dose: 18.7 mg/kg/injection, schedule: Q04DX003 (ip), vehicle: saline with Tween-80 113 % of control | [13] 118 % of control

O=C(O)CBr
inactive: dose: 25.0 mg/kg/injection, schedule: Q01DX005 (ip), vehicle: other 110 % of control

CC(=O)OC1C2C=CC1C=C2 (configuration not stated)
inactive: [6] 104 % of control | [7] 93 % of control | [8] 100 % of control

CCCNC(=O)NC1CC(=O)N(CCC)C1=O (configuration not stated)
inactive: [1] 93 % of control | [2] 100 % of control | [3] 102 % of control

CCCCCCC(O)C(CCCCCC)[Se]C (configuration not stated)
inactive: [14] 104 % of control | [4] 106 % of control and 115 % of control | [5] 100 % of control

COc1cc(C(=O)C[n+]2ccccc2)ccc1O
inactive: [14] 100 % of control | [4] 100 % of control | [5] 100 % of control

O=C1CC(c2ccc(Cl)cc2)C(c2ccc(Cl)cc2)C1C(=O)OC1CCCCC1 (configuration not stated)
inactive: dose: 1.56 mg/kg/injection, schedule: Q01DX001 (ip), vehicle: Klucel (hydroxypropylcellulose) (HPC) 110 % of control | dose: 3.13 mg/kg/injection, schedule: Q01DX001 (ip), vehicle: Klucel (hydroxypropylcellulose) (HPC) 107 % of control | dose: 6.25 mg/kg/injection, schedule: Q01DX001 (ip), vehicle: Klucel (hydroxypropylcellulose) (HPC) 107 % of control and 89 % of control

Cc1c2occc2cc2c1oc(=O)c1cnccc12
inactive: [9] 105 % of control | [10] 100 % of control | [11] 98 % of control

CN1C(=O)c2ccccc2NC(=O)C12O[C@@H]2c1cccc(O)c1 (some centres not stated)
inactive: dose: 1.63 mg/kg/injection, schedule: Q01DX005 (ip), vehicle: DMSO 106 % of control | dose: 3.25 mg/kg/injection, schedule: Q01DX005 (ip), vehicle: DMSO 106 % of control | dose: 6.5 mg/kg/injection, schedule: Q01DX005 (ip), vehicle: DMSO 113 % of control | dose: 13.0 mg/kg/injection, schedule: Q01DX005 (ip), vehicle: DMSO 100 % of control

CC[N+](C)(CC)CCSC1=Nc2ccccc2N=C(c2ccc(Sc3ccccc3)cc2)C1
inactive: dose: 1.56 mg/kg/injection, schedule: Q01DX009 (ip), vehicle: Klucel (hydroxypropylcellulose) (HPC) 117 % of control | dose: 3.12 mg/kg/injection, schedule: Q01DX009 (ip), vehicle: Klucel (hydroxypropylcellulose) (HPC) 99 % of control | dose: 6.25 mg/kg/injection, schedule: Q01DX009 (ip), vehicle: Klucel (hydroxypropylcellulose) (HPC) 106 % of control and 108 % of control

CC(=O)NC(CC(=O)O)C(=O)O (configuration not stated)
inactive: dose: 100.0 mg/kg/injection, schedule: Q01DX001 (ip), vehicle: saline 106 % of control | dose: 200.0 mg/kg/injection, schedule: Q01DX001 (ip), vehicle: saline 100 % of control | dose: 400.0 mg/kg/injection, schedule: Q01DX001 (ip), vehicle: saline 97 % of control
